For experiment [1], the system named is TNF-α release from LPS-stimulated whole rat blood. Nature of the experiment: Inhibition of LPS-induced TNF-α release in whole rat blood. It counts as cell-based. The conditions noted are these: LPS 10 mg L^−1, 6 h incubation, compared to LPS-treated control. The protocol: Stimulation of whole rat blood by LPS was performed on 96-well plates. […] Contents of each well (200 μL) consisted of heparinized rat blood containing 10 U heparin mL^−1 diluted with RPMI-1640 medium at a ratio of 1:1 (v/v). All compounds were dissolved in DMSO and added to blood (the final DMSO concentration in blood was 0.5%) 15 min prior to the addition of LPS dissolved in RPMI-1640 medium to achieve the LPS concentration of 10 mg L^−1. Both, LPS and DMSO were also added to control wells at the same concentrations. Additional control samples (for testing baseline TNF-α levels in blood) consisted of DMSO (0.5%) without LPS. The incubation was performed at 37°C in a humidified atmosphere of 5% CO2 in an MCO-5 AC-PE incubator (PHCbi, Japan). After 6 h of incubation, the plates were centrifuged for 10 min using PlateFuge MicroCentrifuge (Benchmark Scientific, USA). The individual plasma samples were harvested and stored at −80°C until analysis.
(§1) TNF-α levels in LPS-stimulated rat blood in vitro and in rat plasma samples from the in vivo studies were analyzed by the Rat TNF-α Quantikine ELISA Immunoassay Kit (R&D Systems, USA) according to the manufacturer’s instructions. The assay was linear at the range of 12.5–800 pg mL^−1. Levels of TNF-α in mice serum were measured by ELISA Kits for Tumor Necrosis Factor Alpha (Cloud-Clone Corp., USA). This assay was linear at the range of 15.6–1000 pg mL^−1. Absorbance was measured at 450 nm using a POLARstar Omega multi-mode microplate reader (BMG LABTECH, Germany).

Experiment [2] has as its system TNF-α plasma levels in male Wistar rats with LPS-induced endotoxemia. Kind of experiment: LPS-induced endotoxemia in rats, PK/PD model of plasma TNF-α. It counts as in vivo, rat. The protocol:
Male Wistar rats were implanted with catheters (SAI Infusion Technologies, USA) into the jugular vein and after a two-day recovery period they were administered with LPS dissolved in saline at a dose of 1 mg kg ^−1 into the tail vein simultaneously with one of the investigated compounds. […] The doses of the compounds were selected based on the literature data or results of our previous experiments. Each control group received LPS at the same IV dose and an appropriate volume of corresponding vehicle. […] The plasma samples were collected and stored at −80°C until analysis.
as §1
PK/PD and PK/PD/DIS progression models were developed considering the mechanism of action of the investigated compounds, the mechanisms of disease progression in the case of CIA, and the subsequent stages leading to TNF-α release in the case of LPS-induced endotoxemia. Various numbers of transit compartments were tested during development of the models, and the final models were chosen based on the goodness-of-fit criteria, such as AIC, SBC, a visual inspection of the fitting, and parameter precision. Estimated values of pharmacokinetic parameters were fixed during PK/PD and PK/PD/DIS progression model fitting procedures. […] PK/PD and PK/PD/DIS progression modeling were performed in ADAPT 5 software using the weighted least squares algorithm.
Therefore, as a result of PK/PD analysis, three sets of pharmacodynamic parameters were obtained based on the data from the three individual experiments.
The applied model is a modified indirect response model ([19]) with implemented transit compartments (T1-T4) that describe the delay of the observed pharmacodynamic response. In this scheme τ is the mean transit time, kin is the time limited (from 0 to tlag) zero-order rate constant of production of a TNF-α precursor (e.g., TNF-α mRNA). Different numbers of transit compartments were tested during the model development, but the best fit was observed using four transit compartments.
All Imax values were fixed to 1.

For experiment [3], the system named is LPS-stimulated murine macrophages (RAW263.7 cells). Also noted: method as in PMID 14998551. The conditions noted are these: cited from earlier work.
Experiment [4] concerns TNF-α release in mice model of endotoxemia. Also noted: method as in PMID 20389149. The conditions noted are these: mice model of endotoxemia ref [19]; cited from earlier work.
Another experiment relates to cAMP degradation. On the set-up: method as in PMID 28730281. The conditions noted are these: rats, cAMP as a marker of pharmacological response ref [9]; cited from earlier work.
The next experiment concerns PDE4. Also noted: method as in PMID 14998551. The conditions noted are these: ref [31]; read-out: IC50PDE4; cited from earlier work.
The subject of experiment [5] is LPS-stimulated human PBMC. On the set-up: method as in PMID 14998551. The conditions noted are these: LPS-stimulated human PBMC ref [31]; read-out: IC50, TNF-α production; cited from earlier work.

In brackets after ≈: the same amount, converted by molar mass.

`CC(=O)CCCCn1c(=O)c2c(ncn2C)n(C)c1=O` [PTX, Pentoxifylline]: the “Reduction of TNF-α levels in LPS-stimulated whole rat blood (result in words)” value in experiment [1] is “significantly and with similar potency reduced”. In addition, the IC50 in experiment [2] (Rattus norvegicus, iv, read-out: IC50, concentration of compound producing 50% of Imax (inhibition of TNF-α release in vivo), Final estimate (CV%), plasma concentration, PK/PD model, Imax fixed to 1, male Wistar rats, LPS 1 mg kg^−1 IV, IV GRMS-55 20, rolipram 5, (±)-LSF and PTX 40 and 80 mg kg^−1) was 14 µg/mL (≈ 50.3 µM). Moreover, the “activity in inhibiting TNF-α release in vivo, times lower than that of rolipram” value in experiment [2] (ratio of IC50 values to rolipram) is recorded as ~ 39 times. Further, in experiment [3] (RAW263.7 cells, concentrations of 500 and 1000 μM ref [31]), the “TNF-α production (result in words)” value is listed as “significantly inhibited TNF-α production”. The “IC50 value for the inhibition of TNF-α release” value in experiment [4] was 0.47 µg/mL. In addition, the “IC50 value for the inhibition of cAMP degradation” value in the experiment on cAMP degradation is 4.48 µg/mL.
In the case of `C[C@@H](O)CCCCn1c(=O)c2c(ncn2C)n(C)c1=O` [R-(−)-LSF], the “IC50 value for the inhibition of TNF-α release” value in experiment [4] was 1.61 µg/mL.
`COc1ccc(C(=O)Nc2c(Cl)cncc2Cl)cc1OC1CCCC1` [RP73401]: the IC50 is 1 nM in the experiment with PDE4; 2.7 nM in experiment [3] (LPS-stimulated murine macrophage cell line ref [31], read-out: IC50, TNF-α production); 3.3 nM in experiment [5].

These data come from article PMC6940354, “Comparative Assessment of the New PDE7 Inhibitor – GRMS-55 and Lisofylline in Animal Models of Immune-Related Disorders: A PK/PD Modeling Approach” (Pharmaceutical Research, 2020).
